Measurements reported in ChEMBL document CHEMBL1201862, “PubChem BioAssay data set” (2004).
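Results reflect a 48-hour exposure of cells in 96-well plates to compound at five concentrations. Here, GI50 denotes the concentration required for 50% inhibition of growth.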 Active and inactive are the calls of the source. Rule as the data show it: active = GI50 up to about 1.1 µM and inactive = higher.

How the values were obtained:
Test in all cases: DTP human tumour cell line panel, 48 h
COLO 205 = test system: COLO 205
HCT-15 = test system: HCT-15
LOX IMVI = test system: LOX IMVI
CAKI-1 = test system: CAKI-1
HCC 2998 = test system: HCC 2998
HT-29 = test system: HT-29
MDA-MB-231 = test system: MDA-MB-231
UO-31 = test system: UO-31
SK-MEL-2 = test system: SK-MEL-2
KM12 = test system: KM12
OVCAR-5 = test system: OVCAR-5
HOP-62 = test system: HOP-62
A549 = test system: A549
ACHN = test system: ACHN
Malme-3M = test system: Malme-3M
TK-10 = test system: TK-10
T47D = test system: T47D
PC-3 = test system: PC-3
SNB-19 = test system: SNB-19
U-251 = test system: U-251
HL-60 = test system: HL-60
MDA-MB-435 = test system: MDA-MB-435
OVCAR-4 = test system: OVCAR-4
MOLT-4 = test system: MOLT-4
IGROV-1 = test system: IGROV-1
OVCAR-8 = test system: OVCAR-8
K562 = test system: K562
NCI/ADR-RES = test system: NCI/ADR-RES
SF-268 = test system: SF-268
UACC-62 = test system: UACC-62
RPMI-8226 = test system: RPMI-8226
SN12C = test system: SN12C
SK-OV-3 = test system: SK-OV-3
UACC-257 = test system: UACC-257
CCRF-CEM = test system: CCRF-CEM
HCT-116 = test system: HCT-116
DU-145 = test system: DU-145
SK-MEL-5 = test system: SK-MEL-5
MCF7 = test system: MCF7
EKVX = test system: EKVX
NCI-H460 = test system: NCI-H460
SK-MEL-28 = test system: SK-MEL-28
786-0 = test system: 786-0
A498 = test system: A498
RXF 393 = test system: RXF 393
SF-295 = test system: SF-295
SW-620 = test system: SW-620
HOP-92 = test system: HOP-92
BT-549 = test system: BT-549
MDA-N = test system: MDA-N
M14 = test system: M14
NCI-H522 = test system: NCI-H522
Hs-578T = test system: Hs-578T
NCI-H226 = test system: NCI-H226
NCI-H23 = test system: NCI-H23

Compound: N#CC(C#N)=C1C(=O)NC(N)=C1C#N
- GI50 (COLO 205): > 100 µM (inactive)
- GI50 (HCT-15): > 100 µM
- GI50 (LOX IMVI): > 100 µM (inactive)
- GI50 (CAKI-1): > 100 µM (inactive)
- GI50 (HCC 2998): > 100 µM (inactive)
- GI50 (HT-29): > 100 µM (inactive)
- GI50 (MDA-MB-231): > 100 µM (inactive)
- GI50 (UO-31): > 100 µM (inactive)
- GI50 (SK-MEL-2): > 100 µM (inactive)
- GI50 (KM12): > 100 µM (inactive)
- GI50 (OVCAR-5): > 100 µM (inactive)
- GI50 (HOP-62): > 100 µM (inactive)
- GI50 (A549): > 100 µM (inactive)
- GI50 (ACHN): > 100 µM (inactive)
- GI50 (Malme-3M): > 100 µM (inactive)
- GI50 (TK-10): > 100 µM (inactive)
- GI50 (T47D): > 100 µM (inactive)
- GI50 (PC-3): > 100 µM (inactive)
- GI50 (SNB-19): > 100 µM (inactive)
- GI50 (U-251): > 100 µM (inactive)
- GI50 (HL-60): > 100 µM (inactive)
- GI50 (MDA-MB-435): > 100 µM (inactive)
- GI50 (OVCAR-4): > 100 µM (inactive)
- GI50 (MOLT-4): > 100 µM (inactive)
- GI50 (IGROV-1): > 100 µM (inactive)
- GI50 (OVCAR-8): > 100 µM (inactive)
- GI50 (K562): > 100 µM (inactive)
- GI50 (NCI/ADR-RES): > 100 µM (inactive)
- GI50 (SF-268): > 100 µM (inactive)
- GI50 (UACC-62): > 100 µM (inactive)
- GI50 (RPMI-8226): > 100 µM (inactive)
- GI50 (SN12C): > 100 µM (inactive)
- GI50 (SK-OV-3): > 100 µM (inactive)
- GI50 (UACC-257): > 100 µM (inactive)
- GI50 (CCRF-CEM): > 100 µM (inactive)
- GI50 (HCT-116): > 100 µM (inactive)
- GI50 (DU-145): > 100 µM (inactive)
- GI50 (SK-MEL-5): > 100 µM (inactive)
- GI50 (MCF7): > 100 µM (inactive)
- GI50 (EKVX): > 100 µM (inactive)
- GI50 (NCI-H460): > 100 µM (inactive)
- GI50 (SK-MEL-28): > 100 µM (inactive)
- GI50 (786-0): > 100 µM (inactive)
- GI50 (A498): > 100 µM (inactive)
- GI50 (RXF 393): > 100 µM (inactive)
- GI50 (SF-295): > 100 µM (inactive)
- GI50 (SW-620): > 100 µM (inactive)
- GI50 (HOP-92): > 100 µM (inactive)
- GI50 (BT-549): > 100 µM (inactive)
- GI50 (MDA-N): > 100 µM (inactive)
- GI50 (M14): > 100 µM (inactive)
- GI50 (NCI-H522): > 100 µM (inactive)
- GI50 (Hs-578T): > 100 µM (inactive)
- GI50 (NCI-H226): > 100 µM (inactive)
- GI50 (NCI-H23): > 100 µM (inactive)
